Source: ChEMBL document CHEMBL1156569, “Structural basis for the improved drug resistance profile of new generation benzophenone non-nucleoside HIV-1 reverse transcriptase inhibitors” (J Med Chem, 2008)

Assays:
Format in all cases: functional, organism-based
Details in all cases: Human immunodeficiency virus 1, HeLa
[1] = test system: Human immunodeficiency virus 1; assay: Antiviral activity against NNRTI-resistant HIV1 with reverse transcriptase V106I/Y181C mutant in HeLa cells by MAGI assay
[2] = test system: Human immunodeficiency virus 1; assay: Antiviral activity against NNRTI-resistant HIV1 with reverse transcriptase G190E mutant in HeLa cells by MAGI assay
[3] = test system: Human immunodeficiency virus 1; assay: Antiviral activity against NNRTI-resistant HIV1 with reverse transcriptase P225H mutant in HeLa cells by MAGI assay
[4] = test system: Human immunodeficiency virus 1; assay: Antiviral activity against NNRTI-resistant HIV1 with reverse transcriptase L100I mutant in HeLa cells by MAGI assay
[5] = test system: Human immunodeficiency virus 1; assay: Antiviral activity against NNRTI-resistant HIV1 with reverse transcriptase Y188C mutant in HeLa cells by MAGI assay
[6] = test system: Human immunodeficiency virus 1; assay: Antiviral activity against NNRTI-resistant HIV1 with reverse transcriptase E138K mutant in HeLa cells by MAGI assay
[7] = test system: Human immunodeficiency virus 1; assay: Antiviral activity against wild type HIV1 in HeLa cells by MAGI assay
[8] = test system: Human immunodeficiency virus 1; assay: Antiviral activity against NNRTI-resistant HIV1 with reverse transcriptase G190A mutant in HeLa cells by MAGI assay
[9] = test system: Human immunodeficiency virus 1; assay: Antiviral activity against NNRTI-resistant HIV1 with reverse transcriptase K103N/P225H mutant in HeLa cells by MAGI assay
[10] = test system: Human immunodeficiency virus 1; assay: Antiviral activity against NNRTI-resistant HIV1 with reverse transcriptase V106A mutant in HeLa cells by MAGI assay
[11] = test system: Human immunodeficiency virus 1; assay: Antiviral activity against NNRTI-resistant HIV1 with reverse transcriptase V106I mutant in HeLa cells by MAGI assay
[12] = test system: Human immunodeficiency virus 1; assay: Antiviral activity against NNRTI-resistant HIV1 with reverse transcriptase K103N/Y181C mutant in HeLa cells by MAGI assay
[13] = test system: Human immunodeficiency virus 1; assay: Antiviral activity against NNRTI-resistant HIV1 with reverse transcriptase K103N/G190A mutant in HeLa cells by MAGI assay
[14] = test system: Human immunodeficiency virus 1; assay: Antiviral activity against NNRTI-resistant HIV1 with reverse transcriptase V106A/Y181C mutant in HeLa cells by MAGI assay
[15] = test system: Human immunodeficiency virus 1; assay: Antiviral activity against NNRTI-resistant HIV1 with reverse transcriptase K103N/V108I mutant in HeLa cells by MAGI assay
[16] = test system: Human immunodeficiency virus 1; assay: Antiviral activity against NNRTI-resistant HIV1 with reverse transcriptase K103N/L100I mutant in HeLa cells by MAGI assay
[17] = test system: Human immunodeficiency virus 1; assay: Antiviral activity against NNRTI-resistant HIV1 with reverse transcriptase K103N mutant in HeLa cells by MAGI assay
[18] = test system: Human immunodeficiency virus 1; assay: Antiviral activity against NNRTI-resistant HIV1 with reverse transcriptase P236L mutant in HeLa cells by MAGI assay
[19] = test system: Human immunodeficiency virus 1; assay: Antiviral activity against NNRTI-resistant HIV1 with reverse transcriptase Y181C mutant in HeLa cells by MAGI assay
[20] = test system: Human immunodeficiency virus 1; assay: Antiviral activity against NNRTI-resistant HIV1 with reverse transcriptase K101E mutant in HeLa cells by MAGI assay
[21] = test system: Human immunodeficiency virus 1; assay: Antiviral activity against NNRTI-resistant HIV1 with reverse transcriptase V108I mutant in HeLa cells by MAGI assay
[22] = test system: Human immunodeficiency virus 1; assay: Antiviral activity against NNRTI-resistant HIV1 with reverse transcriptase Y188L mutant in HeLa cells by MAGI assay
[23] = test system: Human immunodeficiency virus 1; assay: Antiviral activity against NNRTI-resistant HIV1 with reverse transcriptase G190S mutant in HeLa cells by MAGI assay
[24] = test system: Human immunodeficiency virus 1; assay: Antiviral activity against NNRTI-resistant HIV1 with reverse transcriptase V106M mutant in HeLa cells by MAGI assay
[25] = test system: Human immunodeficiency virus 1; assay: Antiviral activity against NNRTI-resistant HIV1 with reverse transcriptase V108I/Y181C mutant in HeLa cells by MAGI assay

Row | Structure (SMILES) | IC50 [1] | IC50 [2] | IC50 [4] | IC50 [5] | IC50 [6] | IC50 [7] | IC50 [8] | IC50 [9] | IC50 [10] | IC50 [11] | IC50 [12] | IC50 [13] | IC50 [14] | IC50 [15] | IC50 [16] | IC50 [17] | IC50 [18] | IC50 [19] | IC50 [20] | IC50 [21] | also measured
1 | O=C(COc1ccc(Cl)cc1C(=O)c1ccccc1)Nc1ccccc1 | 1900 nM | 8.3 nM | 21 nM | 122 nM | 27 nM | 2 nM | 31 nM | 56 nM | 696 nM | 18 nM | 1050 nM | 661 nM | 902 nM | 347 nM | 269 nM | 25 nM | 5.4 nM | 162 nM | 13 nM | 19 nM | IC50 [3]: 3.3 nM; IC50 [22]: > 2000 nM; IC50 [23]: 135 nM; IC50 [24]: 155 nM; IC50 [25]: 638 nM
2 | Cc1ccnc2c1NC(=O)c1cccnc1N2C1CC1 [NEVIRAPINE] | > 2000 nM | 83 nM | 304 nM | 801 nM | 71 nM | 53 nM | > 2000 nM | > 2000 nM | 1870 nM | 89 nM | > 2000 nM | > 2000 nM | > 2000 nM | > 2000 nM | > 2000 nM | > 2000 nM | 59 nM | > 2000 nM | 409 nM | 294 nM | IC50 [3]: 118 nM; IC50 [22]: > 2000 nM; IC50 [23]: > 2000 nM; IC50 [24]: > 2000 nM; IC50 [25]: > 2000 nM
3 | Cc1cc(S(N)(=O)=O)ccc1NC(=O)COc1ccc(Cl)cc1C(=O)c1cc(Cl)cc(C#N)c1 | 3.8 nM | 0.4 nM | 0.3 nM | 0.04 nM | 1.6 nM | 0.2 nM | 0.6 nM | 0.7 nM | 1.1 nM | 0.8 nM | 1.2 nM | 3.3 nM | 1 nM | 0.9 nM | 0.9 nM | 0.4 nM | 0.4 nM | 0.4 nM | 0.6 nM | 0.7 nM | IC50 [22]: 14 nM; IC50 [23]: 0.7 nM; IC50 [24]: 0.4 nM; IC50 [25]: 0.6 nM
4 | O=C1Nc2ccc(Cl)cc2C(C#CC2CC2)(C(F)(F)F)O1 (single isomer, unassigned) [EFAVIRENZ] | 3 nM | 1 nM | 21 nM | 1.2 nM | 1.2 nM | 0.4 nM | 5.9 nM |  | 0.8 nM | 0.9 nM | 44 nM |  | 2 nM | 94 nM | 1200 nM | 17 nM | 0.6 nM | 0.8 nM | 2.3 nM | 1.8 nM | IC50 [3]: 1.3 nM; IC50 [22]: 154 nM; IC50 [23]: 89 nM; IC50 [24]: 7.2 nM; IC50 [25]: 2.7 nM
5 | Cc1cc(S(N)(=O)=O)ccc1NC(=O)COc1ccc(Cl)cc1C(=O)c1cc(F)cc(C(F)(F)F)c1 | 10 nM | 3.9 nM | 1.1 nM | 0.3 nM | 2.7 nM | 1.2 nM | 4 nM | 1.4 nM | 9.3 nM | 2.3 nM | 3.3 nM | 13 nM | 13 nM | 2.6 nM | 2.8 nM | 1.7 nM | 3.4 nM | 2.1 nM | 3.1 nM | 1.8 nM | IC50 [3]: 0.7 nM; IC50 [22]: 66 nM; IC50 [25]: 3.2 nM
6 | CC(C)Nc1cccnc1N1CCN(C(=O)c2cc3cc(NS(C)(=O)=O)ccc3[nH]2)CC1 [DELAVIRDINE] | 943 nM |  | 773 nM | 1620 nM |  | 88 nM | 21 nM | > 2000 nM | 750 nM | 22 nM | > 2000 nM | 730 nM | > 2000 nM | > 2000 nM | > 2000 nM | 1600 nM | > 2000 nM |  | 537 nM |  | 
